Laboratory results reported in patent US12655116B2, “Substituted isophthalic acid diamides” (Bayer Aktiengesellschaft, priority 2020, dated 2026).

Tests used:
ABUTH = assay: Pre-emergence herbicidal action against ABUTH; assay type: in vivo, Abutilon theophrasti; settings: Abutilon theophrasti, 504 h
Procedure, shortened: (§1)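 Visual rating at 3 weeks vs untreated pots; 0–100% scale, 100% = plants died. Treatment: aqueous WP/EC spray onto covering soil, 600–800 l/ha, 0.2% wetter, seeds in sandy loam.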

ALOMY [1] = assay: Pre-emergence herbicidal action against ALOMY; assay type: in vivo, Alopecurus myosuroides; settings: Alopecurus myosuroides, 504 h; 80 g/ha, pre-emergence, scored visually after 3 weeks vs untreated controls (100% = plants have died, 0% = like control plants)
Procedure, shortened: as §1

AMARE [2] = assay: Pre-emergence herbicidal action against AMARE; assay type: in vivo, Amaranthus retroflexus; settings: Amaranthus retroflexus, 504 h, scored visually after 3 weeks vs untreated controls, 100% = plants have died, 0% = like control plants
Procedure, shortened: as §1

AVEFA [3] = assay: Pre-emergence herbicidal action against AVEFA; assay type: in vivo, Avena fatua; settings: Avena fatua, 504 h; 80 g/ha, pre-emergence
Procedure, shortened: as §1

ECHCG [4] = assay: Pre-emergence herbicidal action against ECHCG; assay type: in vivo, Echinochloa crus-galli; settings: Echinochloa crus-galli, 504 h, 80 g/ha
Procedure, shortened: as §1

LOLRI [5] = assay: Pre-emergence herbicidal action against LOLRI; assay type: in vivo, Lolium rigidum; settings: Lolium rigidum, 504 h, 80 g/ha
Procedure, shortened: as §1

MATIN = assay: Pre-emergence herbicidal action against MATIN; assay type: in vivo, Matricaria inodora; settings: Tripleurospermum inodorum, 504 h
Procedure, shortened: as §1

PHBPU [6] = assay: Pre-emergence herbicidal action against PHBPU; assay type: in vivo, Pharbitis purpurea; settings: Ipomoea purpurea, 504 h, dosage 80 g/ha
Procedure, shortened: as §1

SETVI [7] = assay: Pre-emergence herbicidal action against SETVI; assay type: in vivo, Setaria viridis; settings: Setaria viridis, 504 h, dosage 80 g/ha
Procedure, shortened: as §1

VIOTR = assay: Pre-emergence herbicidal action against VIOTR; assay type: in vivo, Viola tricolor; settings: Viola tricolor, 504 h
Procedure, shortened: as §1

DIGSA [8] = assay: Pre-emergence herbicidal action against DIGSA; assay type: in vivo, Digitaria sanguinalis; settings: Digitaria sanguinalis, 504 h
Procedure, shortened: as §1

ALOMY [9] = assay: Post-emergence herbicidal action against ALOMY; assay type: in vivo, Alopecurus myosuroides; settings: Alopecurus myosuroides, 504 h, visual assessment about 3 weeks after treatment vs untreated controls
Procedure, shortened: (§2)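 Greenhouse pot plants in sandy loam were sprayed at the one-leaf stage, 2 to 3 weeks after sowing, with WP or EC formulations as aqueous suspension or emulsion (600 to 800 l/ha water, 0.2% wetting agent). About 3 weeks later, damage was scored visually against untreated controls as % action (100% = dead, 0% = like control).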

AMARE [10] = assay: Post-emergence herbicidal action against AMARE; assay type: in vivo, Amaranthus retroflexus; settings: Amaranthus retroflexus, 504 h, 20 g/ha, visual assessment about 3 weeks after treatment, 100% = plants have died, 0% = like control plants
Procedure, shortened: as §2

AVEFA [11] = assay: Post-emergence herbicidal action against AVEFA; assay type: in vivo, Avena fatua; settings: Avena fatua, 504 h, 20 g/ha, visual assessment about 3 weeks after treatment, 100% = plants have died, 0% = like control plants
Procedure, shortened: as §2

ECHCG [12] = assay: Post-emergence herbicidal action against ECHCG; assay type: in vivo, Echinochloa crus-galli; settings: Echinochloa crus-galli, 504 h
Procedure, shortened: as §2

LOLRI [13] = assay: Post-emergence herbicidal action against LOLRI; assay type: in vivo, Lolium rigidum; settings: Lolium rigidum, 504 h, dosage 20 g/ha
Experimental: Seeds of monocotyledonous and dicotyledonous weed and crop plants are laid out in sandy loam soil in wood-fiber pots, covered with soil and cultivated in a greenhouse under good growth conditions. 2 to 3 weeks after sowing, the test plants are treated at the one-leaf stage. The compounds of the invention, formulated in the form of wettable powders (WP) or as emulsion concentrates (EC), are then sprayed onto the green parts of the plants in the form of an aqueous suspension or emulsion at a water application rate equivalent to 600 to 800 l/ha, with addition of 0.2% wetting agent. After the test plants have been left to stand in the greenhouse under optimal growth conditions for about 3 weeks, the action of the preparations is assessed visually in comparison to untreated controls (herbicidal action in percent (%): 100% activity=the plants have died, 0% activity=like control plants). […] The tables below illustrate, in an illustrative manner, the post-emergence herbicidal action of the compounds of the invention, the herbicidal activity being stated in percent.

PHBPU [14] = assay: Post-emergence herbicidal action against PHBPU; assay type: in vivo, Pharbitis purpurea; settings: Ipomoea purpurea, 504 h, dosage 20 g/ha
Procedure, shortened: as §2

SETVI [15] = assay: Post-emergence herbicidal action against SETVI; assay type: in vivo, Setaria viridis; settings: Setaria viridis, 504 h, dosage 20 g/ha
Procedure, shortened: as §2

VERPE = assay: Post-emergence herbicidal action against VERPE; assay type: in vivo, Veronica persica; settings: Veronica persica, 504 h, 20 g/ha
Procedure, shortened: as §2

DIGSA [16] = assay: Post-emergence herbicidal action against DIGSA; assay type: in vivo, Digitaria sanguinalis; settings: Digitaria sanguinalis, 504 h
Procedure, shortened: as §2

Cn1nnnc1NC(=O)c1ccc(Br)c(C(=O)NCC(F)(F)F)c1Cl [Example 1-181]
90%: pest or weed control at 20 g/ha (ABUTH; dosage 20 g/ha, scored visually after 3 weeks vs untreated controls, 100% = plants have died, 0% = like control plants, read-out: Pre-emergence action against ABUTH (herbicidal activity in percent)) | pest or weed control at 20 g/ha (MATIN; dosage 20 g/ha) | pest or weed control at 20 g/ha (AVEFA [11]) | pest or weed control at 20 g/ha (PHBPU [14]) | pest or weed control at 20 g/ha (SETVI [15]) | pest or weed control at 20 g/ha (VERPE) | pest or weed control at 5 g/ha (DIGSA [16]; 5 g/ha) | pest or weed control at 20 g/ha (DIGSA [16]; 20 g/ha)
80%: pest or weed control at 80 g/ha (AVEFA [3]) | pest or weed control at 80 g/ha (LOLRI [5]) | pest or weed control at 80 g/ha (PHBPU [6]) | pest or weed control at 5 g/ha (ALOMY [9]; dosage 5 g/ha) | pest or weed control at 5 g/ha (ECHCG [12]; dosage 5 g/ha) | pest or weed control at 20 g/ha (ECHCG [12]; dosage 20 g/ha) | pest or weed control at 20 g/ha (LOLRI [13])
100%: pest or weed control at 80 g/ha (ABUTH; 80 g/ha, scored visually after 3 weeks vs untreated controls (100% = plants have died, 0% = like control plants)) | pest or weed control at 80 g/ha (ALOMY [1]) | pest or weed control at 20 g/ha (AMARE [2]; 20 g/ha) | pest or weed control at 80 g/ha (AMARE [2]; 80 g/ha) | pest or weed control at 80 g/ha (ECHCG [4]) | pest or weed control at 80 g/ha (MATIN; dosage 80 g/ha) | pest or weed control at 80 g/ha (SETVI [7]) | pest or weed control at 20 g/ha (VIOTR; dosage 20 g/ha) | pest or weed control at 80 g/ha (VIOTR; dosage 80 g/ha) | pest or weed control at 20 g/ha (DIGSA [8]; dosage 20 g/ha) | pest or weed control at 80 g/ha (DIGSA [8]; dosage 80 g/ha) | pest or weed control at 20 g/ha (ALOMY [9]; dosage 20 g/ha) | pest or weed control at 20 g/ha (AMARE [10])
